Target: T1, soybean lipoxygenase (LOX) (Glycine max, UniProt P08170)
T1 construct: gene LOX1.1
T1 sequence (P08170 1-839): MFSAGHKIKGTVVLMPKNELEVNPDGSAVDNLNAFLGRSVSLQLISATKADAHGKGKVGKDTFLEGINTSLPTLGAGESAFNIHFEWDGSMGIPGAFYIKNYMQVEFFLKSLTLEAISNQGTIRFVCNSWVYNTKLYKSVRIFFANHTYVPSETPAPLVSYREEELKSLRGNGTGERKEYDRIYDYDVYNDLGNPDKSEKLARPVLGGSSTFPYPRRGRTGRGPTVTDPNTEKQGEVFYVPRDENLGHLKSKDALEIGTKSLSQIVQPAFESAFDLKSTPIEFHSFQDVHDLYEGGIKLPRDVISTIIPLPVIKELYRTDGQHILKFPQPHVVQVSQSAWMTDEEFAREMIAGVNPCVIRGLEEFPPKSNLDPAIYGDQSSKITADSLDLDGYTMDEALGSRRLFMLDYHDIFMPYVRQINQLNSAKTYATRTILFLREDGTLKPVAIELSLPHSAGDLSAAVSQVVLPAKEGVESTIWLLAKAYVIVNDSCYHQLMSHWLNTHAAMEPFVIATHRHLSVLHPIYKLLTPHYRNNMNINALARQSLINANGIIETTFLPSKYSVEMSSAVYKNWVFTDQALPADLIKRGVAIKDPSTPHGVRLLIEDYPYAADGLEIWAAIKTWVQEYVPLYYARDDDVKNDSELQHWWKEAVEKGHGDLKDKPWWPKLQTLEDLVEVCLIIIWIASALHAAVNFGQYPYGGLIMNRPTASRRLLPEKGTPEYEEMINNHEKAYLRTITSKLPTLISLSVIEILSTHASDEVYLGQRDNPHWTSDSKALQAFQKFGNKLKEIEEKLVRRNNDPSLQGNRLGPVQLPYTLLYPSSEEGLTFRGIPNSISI
Assay: UV assay at […] nm, sodium linoleate oxidation, pH […]
Assay type: biochemical

| SMILES | IC50 [µM] |
| --- | --- |
| O=C1C(=NNC(=S)Nc2ccccc2)c2cc(F)ccc2N1CN1CCCCC1 [FMp] | 54 |
| COc1ccc2c(c1)/C(=N/NC(=S)Nc1ccccc1)C(=O)N2 [M] | 60.5 |
